The source of these data is US12258344B2, “Azaaromatic amide derivatives for the treatment of cancer” (SHENZHEN FORWARD PHARMACEUTICALS CO., LTD., priority 2019, dated 2025).

Assay [1] deals with T1, BaF3 (EGFR/N771insH) (Homo sapiens, UniProt P00533, cells depend on it, form not given).
T1 construct: Test 16 IC50 (nM); other: BaF3 (EGFR/N771insH), 72 hours, Cell Titer-Glo
Kind of assay: Test 16: EGFR exon 20 inserted N771insH cell proliferation test. The assay is classed as cell-based. Conditions: BaF3 (EGFR/N771insH), 72 hours, Cell Titer-Glo; read-out: Test 16 IC50.

Assay [2] addresses T2, BaF3 (EGFR/N771insH) (Homo sapiens, UniProt P00533, cells depend on it, form not given).
T2 construct: other: N771insH, D770insNPG
The assay is described as above. Format: cell-based. Conditions: N771insH, D770insNPG, V774insHV (tests 16-18), in words.

For the next assay, the target named is BaF3 (HER2/P780insGSP) (Homo sapiens, UniProt P04626, cells depend on it, form not given). The experiment in a line: Test 22: HER2 exon 20 inserted P780insGSP cell proliferation test. Format: cell-based. Conditions: 72 hours, Cell Titer-Glo, read-out: test 22 IC50. As to the method: Test 22: HER2 Exon 20 Inserted P780insGSP Cell Proliferation Test
The engineered cell line BaF3 (HER2/P780insGSP) was constructed by the inventor himself (for the method of cell line construction, see Jingrui Jiang et al., Cancer Res. 2005 Oct. 1; 65 (19): 8964-74; Jacqulyne P. Robichaux et al., Nat Med. 2018 May; 24 (5): 638-646). BaF3 (HER2/P780insGSP) was cultured in RPMI 1640 medium containing 10% fetal bovine serum and 2 mM glutamine, and the cells were grown at 37° C. in a humidified incubator with 5% CO2.
(§1) The number of viable cells in the culture was measured according to the protocol described in Promega's Cell Titer-Glo Luminescent cell Viability Assay (Promega catalog number #G7570). 90 μl of cells (3,000 cells/well) were cultured in growth medium in a Corning black transparent bottom 96-well plate, and cultured in a 5% CO2 humidified incubator at 37° C. overnight. The compound serially diluted in 100% DMSO was added to the cells using a pipette, and the cells were incubated for another 72 hours. 100 μl of the mixed Cell Titer-Glo reagent was added to the cells in the 96-well culture plate to lyse the cells and mix gently. Subsequently, the […] was detected on the Envision microplate detector to obtain the data of each compound. Finally, the data was input into a suitable software package (such as Prism) for curve fitting analysis.
A general note: Cellular ATP, detected with luciferase, serves as a proxy for viable cell number.

The target of assay [3] is T3, BaF3 (EGFR/S768I) (Homo sapiens, UniProt P00533, cells depend on it, form not given).
T3 construct: other: BaF3 (EGFR/S768I), 72 hours, Cell Titer-Glo
Kind of assay: Test 19: EGFR/S768I mutant cell line proliferation test. Format: cell-based. Conditions: BaF3 (EGFR/S768I), 72 hours, Cell Titer-Glo; read-out: Test 19 IC50. As to the method: (§2) Test 19: EGFR/S768I Mutant Cell Line Proliferation Test
as §1

Assay [4] deals with T4, BaF3 (EGFR/S768I) (Homo sapiens, UniProt P00533, cells depend on it, form not given).
T4 construct: other: EGFR S768I and EGFR L8
The description is as above. The assay is classed as cell-based. The settings on record: EGFR S768I and EGFR L861Q (tests 19-20), in words. Here is the method:
as §2, §1

For assay [5], the target named is T5, BaF3 (EGFR/D770insSVD) (Homo sapiens, UniProt P00533, cells depend on it, form not given).
T5 construct: other: A763insFQEA, V769ins
Kind of assay: Test 13: EGFR exon 20 inserted D770insSVD cell proliferation test. Format: cell-based. Conditions: A763insFQEA, V769insASV, D770insSVD (tests 13-15), in words. The procedure, abridged:
(§3)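 BaF3 cells expressing EGFR D770insSVD, 3,000 cells/well, seeded overnight at 37° C, 5% CO2, then exposed to serially diluted compound for 72 h. Viable cells read by CellTiter-Glo luminescence; values from curve fitting.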

In assay [6] the target is T6, BaF3 (EGFR/D770insSVD) (Homo sapiens, UniProt P00533, DUP768-770, cells depend on it).
T6 construct: Test 13 IC50 (nM); other: BaF3 (EGFR/D770insSVD), 72 hours, Cell Titer-Glo
Described as above. The assay is classed as cell-based. Conditions: BaF3 (EGFR/D770insSVD), 72 hours, Cell Titer-Glo; read-out: Test 13 IC50. The gist of the method: as §3

Another assay concerns the target T7, BaF3 (HER2/A775insYVMA) (Homo sapiens, UniProt P04626, cells depend on it, form not given).
T7 construct: other: BaF3 (HER2/A775insYVMA), 72 hours, Cell Titer-Glo
The experiment in a line: Test 21: HER2 exon 20 inserted A775insYVMA cell proliferation test. Conditions: BaF3 (HER2/A775insYVMA), 72 hours, Cell Titer-Glo; read-out: test 21 IC50. The assay is classed as cell-based. Here is the method: Test 21: HER2 Exon 20 Inserted A775insYVMA Cell Proliferation Test
as §1

The target of a further assay is BaF3 (EGFR/L861Q) (Homo sapiens, UniProt P00533, cells depend on it, form not given). Kind of assay: Test 20: EGFR/L861Q mutant cell line proliferation test. Format: cell-based. Conditions: 72 hours, Cell Titer-Glo, read-out: Test 20 IC50. As to the method: as §1, with “The compound serially diluted in 100% DMSO was added to the cells using a pipette, and the cells were incubated for another 72 hours.” left out

The next assay deals with BaF3 (EGFR/V769insASV) (Homo sapiens, UniProt P00533, DUP767-769, cells depend on it). The experiment in a line: Test 15: EGFR exon 20 inserted V769insASV cell proliferation test. The assay is classed as cell-based. The settings on record: 72 hours, Cell Titer-Glo, read-out: Test 15 IC50. The procedure, abridged:
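BaF3 cells expressing EGFR V769insASV (3000 cells/well) plated overnight, then exposed to DMSO-diluted compound series for 72 h at 37 °C, 5% CO2. Viability by CellTiter-Glo luminescence; values from curve fitting.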

A further assay addresses BaF3 (HER2/G776insVC) (Homo sapiens, UniProt P04626, cells depend on it, form not given). Kind of assay: Test 23: HER2 exon 20 inserted G776insVC cell proliferation test. Format: cell-based. The settings on record: 72 hours, Cell Titer-Glo, read-out: test 23 IC50. As to the method: Test 23: HER2 Exon 20 Inserted G776insVC Cell Proliferation Test
as §1

The target of the next assay is BaF3 (EGFR/A763insFQEA) (Homo sapiens, UniProt P00533, INS763FQEA, cells depend on it). Kind of assay: Test 14: EGFR exon 20 inserted A763insFQEA cell proliferation test. Conditions: 72 hours, Cell Titer-Glo, read-out: Test 14 IC50. The assay is classed as cell-based. The procedure, abridged:
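BaF3 cells dependent on EGFR A763insFQEA, plated at 3,000 cells/well and cultured overnight at 37 °C, 5% CO2, then exposed to compound serial dilutions in DMSO for 72 h. Viable cells quantified by CellTiter-Glo luminescence; values from curve fitting.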

The target in the next assay is BaF3 (EGFR/V774insHV) (Homo sapiens, UniProt P00533, cells depend on it, form not given). Kind of assay: Test 18: EGFR exon 20 inserted V774insHV cell proliferation test. The assay is classed as cell-based. Conditions: 72 hours, Cell Titer-Glo, read-out: Test 18 IC50. As to the method: as §1
The target in another assay is BaF3 (EGFR/D770insNPG) (Homo sapiens, UniProt P00533, cells depend on it, form not given). The experiment in a line: Test 17: EGFR exon 20 inserted D770insNPG cell proliferation test. The assay is classed as cell-based. The settings on record: 72 hours, Cell Titer-Glo, read-out: Test 17 IC50. As to the method: Test 17: EGFR Exon 20 Inserted D770insNPG Cell Proliferation Test
as §1

For the next assay, the target named is T8, HER4 kinase (Homo sapiens, UniProt Q15303).
T8 construct: made in house
The experiment in a line: Test 24: HER4 kinase inhibition test. Format: biochemical. Here is the method: Test 24: HER4 Kinase Inhibition Test
Next, 100% DMSO was used to formulate the test compound into a solution of 50× at the final test concentration, and then sequentially diluted to 10 test concentrations; 100 μL of 100% DMSO was added to the blank control well as a negative control group without the compound and kinase. […] Finally, 10 μL of 2.5× peptide solution was added to the 384-well plate. After incubating at 25° C. for 10 minutes, 25 μL of reaction stop solution was added. Finally, the absorbance was detected on the Envision microplate detector to obtain the data of each compound. Finally, the data was input into a suitable software package (such as Prism) for curve fitting analysis.

Molecules are shown by their SMILES.

As usually defined, the IC50 is the concentration that gives 50% inhibition.

T8 sequence (Q15303 26-1308): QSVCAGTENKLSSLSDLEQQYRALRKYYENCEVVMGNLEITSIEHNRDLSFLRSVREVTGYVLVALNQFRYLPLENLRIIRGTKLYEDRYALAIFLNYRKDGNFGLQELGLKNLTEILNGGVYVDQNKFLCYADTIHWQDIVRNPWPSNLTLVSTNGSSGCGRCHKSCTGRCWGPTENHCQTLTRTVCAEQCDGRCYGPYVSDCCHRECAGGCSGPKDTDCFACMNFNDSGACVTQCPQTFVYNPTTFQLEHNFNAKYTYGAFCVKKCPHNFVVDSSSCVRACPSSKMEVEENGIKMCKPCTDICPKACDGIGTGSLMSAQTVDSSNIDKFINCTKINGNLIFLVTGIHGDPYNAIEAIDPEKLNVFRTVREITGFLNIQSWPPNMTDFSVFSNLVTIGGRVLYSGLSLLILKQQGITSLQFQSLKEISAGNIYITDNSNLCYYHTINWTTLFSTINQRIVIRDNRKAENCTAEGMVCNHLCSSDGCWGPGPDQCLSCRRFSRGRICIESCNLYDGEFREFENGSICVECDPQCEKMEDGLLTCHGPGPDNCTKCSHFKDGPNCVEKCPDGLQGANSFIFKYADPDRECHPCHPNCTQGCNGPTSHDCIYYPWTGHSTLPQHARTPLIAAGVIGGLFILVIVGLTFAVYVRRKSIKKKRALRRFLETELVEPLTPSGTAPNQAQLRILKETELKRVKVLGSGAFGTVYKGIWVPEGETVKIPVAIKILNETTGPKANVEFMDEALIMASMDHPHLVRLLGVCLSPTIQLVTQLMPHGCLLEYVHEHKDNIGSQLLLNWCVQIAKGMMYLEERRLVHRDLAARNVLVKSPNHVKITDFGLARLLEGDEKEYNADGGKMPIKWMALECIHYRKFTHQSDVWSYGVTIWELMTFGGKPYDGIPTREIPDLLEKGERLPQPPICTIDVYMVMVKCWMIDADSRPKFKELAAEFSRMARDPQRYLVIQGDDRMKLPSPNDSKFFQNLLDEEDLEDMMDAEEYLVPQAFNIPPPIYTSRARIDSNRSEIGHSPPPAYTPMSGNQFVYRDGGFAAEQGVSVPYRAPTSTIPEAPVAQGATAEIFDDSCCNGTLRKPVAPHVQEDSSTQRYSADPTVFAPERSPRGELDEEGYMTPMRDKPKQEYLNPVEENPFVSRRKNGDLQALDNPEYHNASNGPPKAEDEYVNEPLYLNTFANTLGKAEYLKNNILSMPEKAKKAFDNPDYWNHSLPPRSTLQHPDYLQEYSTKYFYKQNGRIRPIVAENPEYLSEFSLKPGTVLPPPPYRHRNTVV
T7 sequence (P04626 with tags, fused parts or gaps DUP778-780): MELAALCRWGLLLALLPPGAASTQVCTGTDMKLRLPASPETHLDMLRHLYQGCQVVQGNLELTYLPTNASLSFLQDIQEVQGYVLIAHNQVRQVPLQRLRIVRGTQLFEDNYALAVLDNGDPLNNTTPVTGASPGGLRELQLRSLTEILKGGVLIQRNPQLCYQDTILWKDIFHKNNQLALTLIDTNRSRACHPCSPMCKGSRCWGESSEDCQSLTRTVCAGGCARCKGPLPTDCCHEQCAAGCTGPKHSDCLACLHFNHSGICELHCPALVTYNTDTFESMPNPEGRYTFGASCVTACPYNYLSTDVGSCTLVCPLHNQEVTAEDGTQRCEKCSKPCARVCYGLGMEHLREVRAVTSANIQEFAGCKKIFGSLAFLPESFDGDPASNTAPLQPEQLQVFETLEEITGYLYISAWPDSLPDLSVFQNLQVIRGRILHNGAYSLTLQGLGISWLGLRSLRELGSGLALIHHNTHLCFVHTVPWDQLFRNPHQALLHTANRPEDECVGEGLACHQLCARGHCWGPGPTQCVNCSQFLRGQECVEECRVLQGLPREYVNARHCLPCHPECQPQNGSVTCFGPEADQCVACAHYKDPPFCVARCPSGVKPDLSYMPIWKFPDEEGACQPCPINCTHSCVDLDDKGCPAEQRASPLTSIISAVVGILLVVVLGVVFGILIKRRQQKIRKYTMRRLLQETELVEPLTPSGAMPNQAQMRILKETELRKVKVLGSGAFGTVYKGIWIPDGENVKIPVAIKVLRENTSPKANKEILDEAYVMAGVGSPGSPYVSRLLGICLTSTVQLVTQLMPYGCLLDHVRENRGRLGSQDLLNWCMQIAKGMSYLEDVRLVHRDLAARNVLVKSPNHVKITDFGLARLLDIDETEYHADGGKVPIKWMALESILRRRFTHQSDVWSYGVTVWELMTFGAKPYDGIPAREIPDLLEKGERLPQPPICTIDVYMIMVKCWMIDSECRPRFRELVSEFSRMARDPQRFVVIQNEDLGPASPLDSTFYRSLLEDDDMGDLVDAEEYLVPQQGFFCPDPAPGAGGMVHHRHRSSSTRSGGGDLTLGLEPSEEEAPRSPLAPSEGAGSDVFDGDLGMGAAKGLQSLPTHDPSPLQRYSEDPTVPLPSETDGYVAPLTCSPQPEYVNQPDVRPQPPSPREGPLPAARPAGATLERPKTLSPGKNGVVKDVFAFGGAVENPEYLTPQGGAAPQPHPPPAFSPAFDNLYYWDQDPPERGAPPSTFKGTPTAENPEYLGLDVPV
Sequence of BaF3 (HER2/G776insVC) (P04626 with tags, fused parts or gaps DUP772-775): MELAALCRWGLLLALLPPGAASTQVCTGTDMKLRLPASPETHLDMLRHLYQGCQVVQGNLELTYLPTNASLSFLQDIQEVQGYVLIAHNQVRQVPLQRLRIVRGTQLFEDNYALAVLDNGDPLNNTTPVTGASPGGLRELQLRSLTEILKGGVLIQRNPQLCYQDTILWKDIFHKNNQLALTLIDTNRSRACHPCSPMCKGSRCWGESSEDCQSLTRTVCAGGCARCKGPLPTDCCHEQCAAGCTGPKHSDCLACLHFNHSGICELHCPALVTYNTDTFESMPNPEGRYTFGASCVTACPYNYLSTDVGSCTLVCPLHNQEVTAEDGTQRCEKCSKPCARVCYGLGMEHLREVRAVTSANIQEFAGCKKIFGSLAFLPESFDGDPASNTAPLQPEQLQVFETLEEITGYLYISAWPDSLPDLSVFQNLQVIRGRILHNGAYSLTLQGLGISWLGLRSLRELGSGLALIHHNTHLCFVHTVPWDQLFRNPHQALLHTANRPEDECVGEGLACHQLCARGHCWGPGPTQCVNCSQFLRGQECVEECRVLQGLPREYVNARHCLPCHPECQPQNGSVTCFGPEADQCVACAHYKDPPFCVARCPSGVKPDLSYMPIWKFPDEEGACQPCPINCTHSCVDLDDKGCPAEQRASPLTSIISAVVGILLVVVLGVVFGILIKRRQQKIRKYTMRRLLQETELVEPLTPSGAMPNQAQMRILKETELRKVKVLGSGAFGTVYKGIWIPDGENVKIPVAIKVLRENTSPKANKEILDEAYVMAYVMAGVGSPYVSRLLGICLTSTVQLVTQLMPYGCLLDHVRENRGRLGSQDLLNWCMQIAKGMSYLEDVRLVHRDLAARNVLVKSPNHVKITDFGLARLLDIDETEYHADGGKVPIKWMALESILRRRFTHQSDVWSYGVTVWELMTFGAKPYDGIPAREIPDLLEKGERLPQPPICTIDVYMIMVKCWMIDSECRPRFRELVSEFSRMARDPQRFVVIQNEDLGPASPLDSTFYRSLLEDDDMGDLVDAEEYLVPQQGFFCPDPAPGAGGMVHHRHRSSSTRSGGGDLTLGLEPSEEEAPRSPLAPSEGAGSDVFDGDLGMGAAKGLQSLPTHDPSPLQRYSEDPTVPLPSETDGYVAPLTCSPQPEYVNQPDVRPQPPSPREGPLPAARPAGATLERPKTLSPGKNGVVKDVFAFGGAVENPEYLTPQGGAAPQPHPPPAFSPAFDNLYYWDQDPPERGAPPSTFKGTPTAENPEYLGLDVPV
Sequence of BaF3 (HER2/P780insGSP) (P04626 with tags, fused parts or gaps DELINS776-776VC): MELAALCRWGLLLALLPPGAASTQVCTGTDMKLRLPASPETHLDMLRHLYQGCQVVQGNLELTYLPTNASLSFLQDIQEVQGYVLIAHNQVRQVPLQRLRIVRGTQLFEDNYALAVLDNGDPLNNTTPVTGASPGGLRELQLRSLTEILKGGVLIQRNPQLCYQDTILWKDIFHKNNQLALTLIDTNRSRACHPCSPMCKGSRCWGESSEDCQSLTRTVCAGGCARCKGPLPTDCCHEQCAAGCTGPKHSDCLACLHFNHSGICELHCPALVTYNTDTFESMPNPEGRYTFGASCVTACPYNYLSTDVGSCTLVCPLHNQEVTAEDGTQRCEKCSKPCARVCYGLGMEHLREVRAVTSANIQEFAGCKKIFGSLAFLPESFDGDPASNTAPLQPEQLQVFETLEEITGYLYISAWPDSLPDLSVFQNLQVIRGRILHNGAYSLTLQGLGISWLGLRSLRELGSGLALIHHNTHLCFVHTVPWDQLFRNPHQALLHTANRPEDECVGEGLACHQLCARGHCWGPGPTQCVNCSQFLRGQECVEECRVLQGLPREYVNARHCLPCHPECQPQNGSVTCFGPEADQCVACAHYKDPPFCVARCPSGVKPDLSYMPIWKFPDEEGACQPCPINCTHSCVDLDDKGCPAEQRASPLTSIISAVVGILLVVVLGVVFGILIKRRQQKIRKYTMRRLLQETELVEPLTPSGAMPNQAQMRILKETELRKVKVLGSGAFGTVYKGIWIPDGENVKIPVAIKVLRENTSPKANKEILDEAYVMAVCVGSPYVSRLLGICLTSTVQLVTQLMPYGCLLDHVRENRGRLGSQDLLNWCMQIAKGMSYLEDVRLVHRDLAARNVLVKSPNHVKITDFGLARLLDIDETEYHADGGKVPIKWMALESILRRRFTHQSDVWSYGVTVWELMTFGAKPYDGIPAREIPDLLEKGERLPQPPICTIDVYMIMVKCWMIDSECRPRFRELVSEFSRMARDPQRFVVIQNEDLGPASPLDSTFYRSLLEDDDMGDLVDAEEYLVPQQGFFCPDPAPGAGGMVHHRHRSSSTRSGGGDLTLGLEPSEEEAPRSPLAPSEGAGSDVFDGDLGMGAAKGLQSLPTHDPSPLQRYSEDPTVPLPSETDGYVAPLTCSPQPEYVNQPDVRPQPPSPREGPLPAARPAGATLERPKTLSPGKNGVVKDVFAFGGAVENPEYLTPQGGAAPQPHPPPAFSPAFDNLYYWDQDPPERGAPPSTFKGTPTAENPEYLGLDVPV

`C=CC(=O)Nc1cc(Nc2ncnc(-c3cn(C)c4ccccc34)n2)c(OC)cc1N(C)CCN(C)C` [Compound 16]: the GI50 on BaF3 (EGFR/N771insH) [1] worked out at 8.67 nM; on BaF3 (HER2/P780insGSP), 1.64 nM; on BaF3 (EGFR/S768I) [3], 8.63 nM; at BaF3 (EGFR/D770insSVD) [6] it was 35.8 nM; on BaF3 (HER2/A775insYVMA), 7.67 nM; at BaF3 (EGFR/L861Q) it was 21.6 nM. The GI50 at BaF3 (EGFR/V769insASV) is 24.8 nM; at BaF3 (HER2/G776insVC), 12 nM; on BaF3 (EGFR/A763insFQEA) it was 12.8 nM; on BaF3 (EGFR/V774insHV), 7.59 nM; at BaF3 (EGFR/D770insNPG), 4.69 nM. In addition, the “cell activity compared with Osimertinib (AZD9291) against EGFR exon 20 insertion mutations” value at BaF3 (EGFR/N771insH) [2] is “significantly superior cell activity over Osimertinib (AZD9291)”; on BaF3 (EGFR/D770insSVD) [5] it was “significant superior cell activity over Osimertinib (AZD9291)”. Besides, the “activity compared with Osimertinib (AZD9291) against EGFR S768I and EGFR L861Q mutations” value at BaF3 (EGFR/S768I) [4] was “superior activity over Osimertinib (AZD9291)”. For the same compound, the “IC50 value lower than that of Osimertinib (AZD9291)” value at HER4 kinase (HER4 kinase) is on record as “about 1 fold”. Besides, the IC50 on HER4 kinase (HER4 kinase inhibition test, read-out: Test 12 HER4 IC50) came out at 29 nM.
